Values of other authors in patent US20100047451A1, “ACTINIC-RADIATION CURABLE INK COMPOSITION, INK SET, INK JET PRINTING APPARATUS, AND INK JET RECORDING METHOD USING ACTINIC-RADIATION CURABLE INK COMPOSITION” (SEIKO EPSON CORPORATION, priority 2008, published 2010).
One block for each molecule: values may come before it.

Tests used:
[1] = primary irritation index
[2] = measurements at 25° C.

Molecule: C=CC(=O)OCCOCCOC [Methoxy diethylene glycol monoacrylate]
PII [1]: 0.7

Molecule: Trimethylolpropane PO-modified triacrylate
PII [1]: 0.1

Molecule: Glycerol PO-modified triacrylate
PII [1]: 0.8

Molecule: C=CC(=O)OCC1COC(C)(CC(C)C)O1 (stereo not drawn) [(2-Methyl-2-isobutyl-1,3-dioxolan-4-yl)methyl acrylate]
PII [1]: 1.0

Molecule: C=C(C)C(=O)OCCOCCOC(=O)C(=C)C [Diethylene glycol dimethacrylate]
PII [1]: 0.5

Molecule: C=C(C)C(=O)OCCCCCCOC(=O)C(=C)C [1,6-Hexanediol dimethacrylate]
PII [1]: 0.5

Molecule: C=C(C)C(=O)OCC(C)(C)COC(=O)C(=C)C [Neopentyl glycol dimethacrylate]
PII [1]: 0.0

Viscosity [2]: 14 mPa · s
Molecule: Polyethylene glycol 200 dimethacrylate
PII [1]: 0.5

Molecule: C=CC(=O)OCC(C)OCC(C)OCC(C)OC(=O)C=C (stereo not drawn) [Tripropylene glycol diacrylate]
PII [1]: 1.6

Molecule: C=CC(=O)OCCCCCCCCCOC(=O)C=C [1,9-Nonanediol diacrylate]
PII [1]: 2.0

Molecule: C=CC(=O)O[C@@H]1C[C@H]2CC[C@]1(C)C2(C)C [Isobornyl acrylate]
PII [1]: 0.6

Molecule: C=C(C)C(=O)OCCOC(=O)C(=C)C [Ethylene glycol dimethacrylate]
PII [1]: 0.6

Molecule: C=CC(=O)OCCOc1ccccc1 [Phenoxyethyl acrylate]
PII [1]: 1.7

Molecule: Polyethylene glycol #400 diacrylate
PII [1]: 0.4

Molecule: C=CC(=O)N1CCOCC1 [Acryloylmorpholine]
PII [1]: 0.5

Viscosity [2]: 5.1 mPa · s
Molecule: C=CC(=O)OCC1COC(C)(CC)O1 (stereo not drawn) [(2-Methyl-2-ethyl-1,3-dioxolan-4-yl)methyl acrylate]
PII [1]: 1.3

Molecule: Trimethylolpropane-modified triacrylate
PII [1]: 1.5

Molecule: C=C(C)C(=O)OCC(O)COC(=O)C(=C)C [2-Hydroxy-1,3-dimethacryloxypropane]
PII [1]: 0.6

Molecule: C=C(C)C(=O)OCC(CC)(COC(=O)C(=C)C)COC(=O)C(=C)C [Trimethylolpropane trimethacrylate]
PII [1]: 0.8
